From PMC11191317, “PNSC928, a plant-derived compound, specifically disrupts CtBP2-p300 interaction and reduces inflammation in mice with acute respiratory distress syndrome” (Biology Direct, 2024)

Experiments:
ARDS mice = assay: LPS-induced ARDS mouse model; format: in vivo
Experimental: All animal experiments were performed following a protocol reviewed and approved by the Institutional Animal Care and Use Committee at Jiangxi Provincial People’s Hospital. We procured C57BL/6 mice from Charles River Laboratories (Beijing, China) and maintained them in specific pathogen-free (SPF) conditions, with a 12-hour light/dark cycle and free access to food and sterile water. We established the ARDS mouse model by administering LPS via tracheal intubation, following an established protocol. Briefly, mice (eight-week-old, half male and half female, 22–25 g) were anesthetized using isoflurane inhalation and randomly classified into Control and ARDS groups. Control mice received 50 µL sterile saline, while ARDS mice were given 25 µg LPS (Sigma-Aldrich, Shanghai, China; #LPS25) in 50 µL sterile saline. Mice were immediately positioned upright and rotated to evenly distribute the LPS within the lungs.
To assess the impact of CtBP2, p300, NF-κB inhibitors, and PNSC928 on ARDS progression, mice were further categorized post-4 h LPS administration into different groups: ARDS, ARDS + MTOB (700 mg/kg; MedChemExpress; Monmouth Junction, NJ; #HY-135,046), ARDS + NSC95397 (1.5 mg/kg; MedChemExpress; #HY-108,543), ARDS + C646 (10 mg/kg; MedChemExpress; #HY-13,823), ARDS + A-485 (50 mg/kg; MedChemExpress; #HY-107,455), ARDS + TPCA1 (10 mg/kg; MedChemExpress; #HY-10,074), ARDS + BOT64 (50 mg/kg; MedChemExpress; #HY-136,741), and ARDS + PNSC928 (20 mg/kg). Mice received these compounds daily for two days. Body weight and temperature were recorded every 24 h. At 48 h post-LPS challenge, mice were sacrificed, and blood samples and lung tissues were harvested.
To collect bronchoalveolar lavage fluid (BALF), the Control, ARDS, and ARDS + PNSC928 groups of mice (n = 10 for each group) were anesthetized with isoflurane inhalation in accordance with institutional guidelines. Mice were placed on their backs, and a small incision was made at the base of the neck to expose the trachea. A flexible catheter was inserted into the trachea and secured with a suture. A syringe filled with sterile phosphate-buffered saline (PBS) (Thermo Fisher, Shanghai, China; #10,010,023) was attached to the catheter, and 1.5 mL of PBS was gently instilled into the right lungs. After allowing the fluid to sit for 10 s, it was aspirated back into the syringe. This process was repeated three times to ensure thorough lavage. The collected BALF was kept on ice in a sterile tube, then centrifuged at 1,000 × g for 10 min at 4 °C to pellet the cells. The supernatant was stored at -80 °C for further analyses.
Whole blood samples were allowed to stand undisturbed at room temperature for 15 min before being centrifuged at 1,000 × g for 10 min. The supernatant serum and BALF were used to measure concentrations of IL-1β, IL-6, IL-15, IL-18, and TNF-α with specific enzyme-linked immunosorbent assay (ELISA) kits as per manufacturer guidelines. The ELISA kits used were: IL-1β (Thermo Fisher; #KMC0011), IL-6 (Thermo Fisher; #KMC0061), IL-15 (Abcam; Shanghai, China; #ab275898), IL-18 (Thermo Fisher; #BMS618-3), and TNF-α (Thermo Fisher; #BMS607-3). Total BALF protein levels were measured using the BCA Protein Assay Kit (Abcam; #ab102536) according to the manufacturer’s protocol.
MPO activity was determined according to a previously established protocol. Briefly, lung tissues (50 mg per mouse) were washed with ice-cold PBS to remove residual blood, then homogenized in a buffer containing 2.5 g of hexadecyltrimethylammonium bromide (Sigma-Aldrich; # H5882) dissolved in 500 mL of PBS. The tissue homogenate was kept on ice for 30 min before centrifugation at 16,000 × g for 10 min at 4 °C. The supernatant was used to measure MPO activity with the Myeloperoxidase Activity Assay Kit (Abcam; #ab105136) according to the manufacturer’s method.
The right upper lobe of the lung was excised, rinsed with PBS, blotted dry, and weighed to determine the “wet” weight. […]

[1] = target: T1, CtBP2-p300^BRD interaction (Mus musculus, UniProt B2RWS6+P56546); assay: AlphaScreen of GST-p300^BRD and His-CtBP2 interaction; format: binding
T1 construct: R1 (1-1000 amino acids, aa), R2 (1001–1201 aa), R3 (1202–1810 aa); made in house; host or cells: E. coli BL21
T1 sequence (B2RWS6 1001-1201 limits assumed): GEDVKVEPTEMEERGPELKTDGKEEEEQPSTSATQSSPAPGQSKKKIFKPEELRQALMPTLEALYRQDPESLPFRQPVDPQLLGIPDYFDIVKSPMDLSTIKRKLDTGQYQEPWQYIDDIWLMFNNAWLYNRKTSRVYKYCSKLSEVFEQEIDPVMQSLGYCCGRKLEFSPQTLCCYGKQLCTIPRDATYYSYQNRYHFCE
T1 sequence (P56546 whole entry, the tested form may be a part): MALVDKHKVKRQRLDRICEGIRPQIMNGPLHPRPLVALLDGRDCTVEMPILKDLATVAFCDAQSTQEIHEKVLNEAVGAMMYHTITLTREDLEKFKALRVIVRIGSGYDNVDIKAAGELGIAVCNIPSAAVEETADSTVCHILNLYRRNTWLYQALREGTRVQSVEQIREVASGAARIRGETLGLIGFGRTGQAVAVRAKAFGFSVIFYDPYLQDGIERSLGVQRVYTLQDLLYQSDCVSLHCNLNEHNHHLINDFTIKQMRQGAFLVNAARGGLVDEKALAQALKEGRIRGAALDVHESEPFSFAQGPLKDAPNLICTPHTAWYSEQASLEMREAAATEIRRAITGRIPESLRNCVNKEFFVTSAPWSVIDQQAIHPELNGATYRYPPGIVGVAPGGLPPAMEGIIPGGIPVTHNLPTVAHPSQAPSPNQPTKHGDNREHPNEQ
Experimental: Plasmids pGEX-6P-1-p300^BRD and pET-28a-CtBP2 (Table S2) were transformed into BL21 competent cells. Upon 1 mM isopropyl β-d-1-thiogalactopyranoside (IPTG) induction, GST-p300BRD and His-CtBP2 proteins were isolated via Glutathione Agarose Beads (Thermo Fisher; #16,100) and Ni-NTA Agarose (Thermo Fisher; #R90115), respectively. A comprehensive small molecule library of 4313 compounds derived from various botanical sources, including Lonicera japonica, Forsythia suspense, Houttuynia cordata, Coptis chinensis, Phellodendron, Pulsatilla chinensis, Lygodium japonicum, Plantago asiatica, and Portulaca olerace, was analyzed through mass spectrometry. […] Post addition of 5 µM from each botanical molecule and a 2-hour incubation at 25 °C, the resultant AlphaScreen signals from 96-well plates (PerkinElmer, #6,008,350) were deciphered with an Envision Multilabel Reader (PerkinElmer, #2105-0010).
To probe this interaction, we established an AlphaScreen system that utilized GST-p300^BRD and His-CtBP2, binding to donor and acceptor beads, respectively (Fig. 4C). […] In vitro assays assessed the effects of PNSC928 on the CtBP2-p300^BRD interaction. […] Furthermore, we assessed the impact of combined LPS and PNSC928 treatment on the expression of key molecules in the NF-κB signaling pathway.

[2] = ARDS mice, 25 μg LPS + 20 mg/kg PNSC928

For CC(=CCCC1=CCC(C2COC(=O)C2)OC1O)CCC1=C(C)CCCC1(C)C (stereo not drawn) [PNSC928], the “Lung wet-to-dry weight ratio” value (ARDS mice; [2]) was “significant reduction”, the “MPO activity in lung tissues” value (ARDS mice; [2]) was “significant reduction” and the “Survival rate of ARDS mice” value (ARDS mice; [2]) was “enhancing the survival rate”. The “Total BALF protein levels” value (ARDS mice; [2]) was “significant reduction”, the “Lung expressions of IL-1B, IL-6, IL-15, IL-18, TNFA, and IFNG (RT-qPCR)” value (ARDS mice; ARDS mice, PNSC928 20 mg/kg) was “significantly reduced” and the “Lung expressions of S100A8, ICAM1, SPP1, FBN1, and SPSB1 (RT-qPCR)” value (ARDS mice; ARDS mice, PNSC928 20 mg/kg) was “without notably altering”. The “Serum and BALF concentrations of pro-inflammatory cytokines (ELISA)” value (ARDS mice; ARDS mice, PNSC928 20 mg/kg from 4 h post-LPS, daily for two days) was “significantly abated”, the “Serum and BALF pro-inflammatory cytokine levels in comparison to control mice” value (ARDS mice; ARDS mice, PNSC928 20 mg/kg from 4 h post-LPS, elevated vs control mice) was 1.3–1.5 fold and the “Decrease in body weights and respiratory distress (pO2) caused by LPS” value (ARDS mice; ARDS mice, PNSC928 20 mg/kg, measured at 0, 1, and 2 days) was “alleviated”. For the same compound, the “Lung damage by histological examination (H&E, histological scores)” value (ARDS mice; LPS-challenged mice, PNSC928 20 mg/kg) was “recovered lung damage”, the Alpha signal ([1]; high-throughput screening, 5 µM compound, signal reduced from 17,500) was 489 and the IC50 ([1]; read-out: IC50 disrupting CtBP2-p300^BRD interaction) was 23.6 ± 3.1 µM.
